In patent publication US10059655B2, “Lipids and lipid compositions for the delivery of active agents” (priority 2013, dated 2018):

Experiments:
[1] = Percentage of encapsulated RNA and RNA concentration of replicon liposomes (Quant-iT RiboGreen); format: physicochemical; conditions: for %E (% entrapment) 1st IM / Conc (Concentration of RNA) 1st IM: RSV-F replicon RNA LNP prepared for 1st immunization; for %E (% entrapment) 2nd IM / Conc (Concentration of RNA) 2nd IM: RSV-F replicon RNA LNP prepared for 2nd immunization
Protocol: RNA was encapsulated in liposomes made essentially by the method of Geall et al. (2012) PNAS vol. 109 (36): 14604-14609, Jeffs et al. (2005) Pharmaceutical Research 22 (3):362-372, and Maurer et al. (2001) Biophysical Journal, 80: 2310-2326 The liposomes were made of 10% DSPC (zwitterionic), 40% cationic lipid, 48% cholesterol and 2% PEG-conjugated DMG (2 kDa PEG). These proportions refer to the % moles in the total liposome.
Briefly, lipids were dissolved in ethanol (2 ml), a RNA replicon was dissolved in buffer (2 ml, 100 mM sodium citrate, pH 6) and these were mixed with 2 ml of buffer followed by 1 hour of equilibration. The mixture was then dialized overnight against 1×PBS. The resulting product contained liposomes, with ˜70-95% encapsulation efficiency. For in vitro and in vivo experiments formulations were diluted to the required RNA concentration with 1×PBS.
The percentage of encapsulated RNA and RNA concentration were determined by Quant-iT RiboGreen RNA reagent kit (Invitrogen), following manufacturer's instructions. The ribosomal RNA standard provided in the kit was used to generate a standard curve. Liposomes were diluted 10× or 100× in 1×TE buffer (from kit) before addition of the dye. Separately, liposomes were diluted 10× or 100× in 1×TE buffer containing 0.5% Triton X before addition of the dye (to disrupt the liposomes and thus to assay total RNA). Thereafter an equal amount of dye was added to each solution and then ˜180 μL of each solution after dye addition was loaded in duplicate into a 96 well tissue culture plate. The fluorescence (Ex 485 nm, Em 528 nm) was read on a microplate reader. All liposome formulations were dosed in vivo based on the encapsulated amount of RNA.
(§1) % entrapment (% E), Concentration of RNA (Conc), particle size measured by DLS, and polydispersity reported by DLS of LNPs prepared with different cationic lipids

hLeptin = test: Human leptin in mouse plasma (ELISA) after subcutaneous injection of encapsulated leptin mRNA; format: in vivo; conditions: C57 mice
Protocol: Human leptin in mouse plasma was measured by ELISA. Antibodies purchased from the R&D Systems duoset (Cat# DY398E, part#840279 for capture antibody and part#840280 for detection antibody) were reconstituted using PBS and titered, again using PBS. The capture antibody was coated at 4 ug/ml in 30 ul/well on a white Nunc® Maxisorp 384 well plate (Cat#460372). After an overnight incubation at room temperature the capture antibody was aspirated and the plate blocked for 2 hours at room temperature with 90 ul/well of KPL milk blocker (Cat#50-82-00). Once the incubation was completed the plate was aspirated and recombinant standards and samples were added to the plate at 30 ul/well for 2 hours at 37° C. while shaking at 600 rpm. Sample/standard dilutions were made using casein sample diluent. Washing/aspiration 3 times with 100 ul/well followed, using Teknova plate wash solution (Cat# P1192). […] The plate was quickly read using a SpectramaxM5 plate reader with a 50 ms integration time. […]
Prior to subcutaneous injection, mouse body weights were recorded and diet weighted, with mice grouped according to their body weights. […]
On day 0, animals were weighed and sorted according to average body weight. ice were dosed at 9 AM and blood was taken at 9 AM on day 0. Blood was also taken at 9 AM on each of days 1 and 2 and assessed for leptin protein levels. Body weight and food intake were also recorded.

[2] = Polydispersity index (PDI) by dynamic light scattering; format: physicochemical; conditions: for PDI 1st IM / PDI 2nd IM: RSV-F replicon RNA LNP, DLS; for PDI 1st IM: 1st immunization; for PDI 2nd IM: 2nd immunization
Protocol: Unless indicated otherwise, all PDIs referred to herein are the PDI of the fully formed nanoparticle, as measured by dynamic light scattering on a Malvern Zetasizer. The nanoparticle sample was diluted in phosphate buffered saline (PBS) so that the count rate was approximately 200-400 kcts. The data is presented in Table 3 as a weighted average of the intensity measure.
as §1

Structure (SMILES) | %E (% entrapment) 1st IM [1] | Conc (Concentration of RNA) 1st IM [1] | %E (% entrapment) 2nd IM [1] | Conc (Concentration of RNA) 2nd IM [1] | Expression of protein following SC injection of encapsulated mRNA: hLeptin (hLeptin; 0.4 mpk) | PDI ([2]; FLuc mRNA) | PDI ([2]; FVII siRNA) | PDI ([2]; Gluc mRNA) | PDI 1st IM [2] | PDI 2nd IM [2] | PDI ([2]; hFIX mRNA) | PDI ([2]; hLep plasmid) | PDI ([2]; hLeptin mRNA) | PDI ([2]; mEPO mRNA) | PDI ([2]; pDNA) | Expression of protein following SC injection of encapsulated mRNA: hLeptin (hLeptin; 0.6 mpk)
CCCCC/C=C\C/C=C\CCCCCCCC(=O)OCC(COC(=O)CCCCCCC/C=C\C/C=C\CCCCC)COC(=O)C1(C)CCN(C)C1 (stereo not shown) [Example 1, (9Z,9′Z,12Z,12′Z)-2-(((1,3-dimethylpyrrolidine-3-carbonyl)oxy)methyl)propane-1,3-diyl bis(octadeca-9,12-dienoate)] | 96.21% | 10.352 µg/mL | 91.99% | 11.279 µg/mL | 2.5 ng/mL | 0.152 | 0.049 | 0.136 | 0.122 | 0.11 | 0.090 | 0.182 | 0.105 | 0.145 | 0.100 | –
CCCCC/C=C\C/C=C\CCCCCCCC(=O)OCC(COC(=O)CCC(OCCCCCCCC)OCCCCCCCC)COC(=O)OCCCN(CC)CC (stereo not shown) [Example 13, (9Z,12Z)-3-((4,4-bis(octyloxy)butanoyl)oxy)-2-((((3-(diethylamino)propoxy)carbonyl)oxy)methyl)propyl octadeca-9,12-dienoate] | – | – | – | – | – | 0.140 | 0.037 | 0.099 | – | – | 0.154 | 0.158 | 0.093 | 0.129 | 0.160 | –
CCCCC/C=C\C/C=C\CCCCCCCC(=O)OCC(COC(=O)CCC(OCCCCCCCC)OCCCCCCCC)COC(=O)OCC1CCCN(CC)C1 (stereo not shown) [Example 15, (9Z,12Z)-3-((4,4-bis(octyloxy)butanoyl)oxy)-2-(((((1-ethylpiperidin-3-yl)methoxy)carbonyl)oxy)methyl)propyl octadeca-9,12-dienoate] | 94.26% | 10.203 µg/mL | 96.64% | 10.091 µg/mL | – | 0.132 | – | 0.133 | 0.121 | 0.097 | 0.182 | 0.149 | 0.125 | 0.125 | 0.110 | 6.2 ng/mL
